Source: ChEMBL document CHEMBL5344422, “Syrosingopine Enhances 20S Proteasome Activity and Degradation of α-Synuclein” (J Nat Prod, 2024)
Active and inactive are the calls of the source. The calls are words filed in the database; no cut-off is given here. Peptide text beside a SMILES is read from it. * marks the point of attachment. Cbz = O=C(OCc1ccccc1)*

Columns and labels:
[1] = target: T1, 20S proteasome (Homo sapiens) (UniProt P49721+P20618+P28074+P28062+P28065+P28072+P25786+P25787+P25788+P25789+P28066+P60900+O14818+Q8TAA3+P40306+A5LHX3+P49720+P28070+Q99436); assay: Activation of human 20S proteasome chymotrypsin-like hydrolysis activity assessed as measuring fold increase in protein activity using SucLLVY-MCA as a fluorogenic substrate at 20 uM incubated for 1 hrs by fluorescence based assay relative to DMSO; assay type: protein-complex assay
[2] = target: 26S proteasome (Homo sapiens) (UniProt Q99460+P49721+P20618+P28074+P28062+P28065+P28072+O00487+P25786+P25787+P25788+P25789+P28066+P60900+O14818+Q8TAA3+P40306+A5LHX3+P49720+P28070+Q99436+Q16186+P35998+P62191+P43686+P62333+P17980+P62195+Q13200+O43242+O00232+O00231+Q15008+P51665+Q9UNM6+P55036+P48556+P60896); assay: Activation of human 26S proteasome mediated proteolytic hydrolysis activity using SucLLVY-AMC as a flurogenic substrate measured every minute for 1 hrs by fluorescence based assay; assay type: protein-complex assay
[3] = target: T1, 20S proteasome (Homo sapiens); assay: Activation of human 20S proteasome assessed as alpha-synuclein degradation in presence of MG132 incubated for 20 mins by Western blot analysis; assay type: protein-complex assay
[4] = target: T1, 20S proteasome (Homo sapiens); assay: Activation of human 20S proteasome chymotrypsin-like hydrolysis activity assessed as concentration to doubling the protein activity using SucLLVY-MCA as a fluorogenic substrate measured after 1 hr by fluorescence based assay; assay type: protein-complex assay; details: filed as activator
[5] = target: T1, 20S proteasome (Homo sapiens); assay: Activation of human 20S proteasome mediated caspase-like proteolytic activity assessed as maximal fold increase in protein activity using […] as a fluorogenic substrate incubated for 1 hr by fluorescence based assay; assay type: protein-complex assay; details: filed as activator
[6] = target: T1, 20S proteasome (Homo sapiens); assay: Activation of human 20S proteasome mediated chymotrypsin-like proteolytic activity assessed as maximal fold increase in protein activity using SucLLVY-MCA as a fluorogenic substrate incubated for 1 hr by fluorescence based assay; assay type: protein-complex assay; details: filed as activator
[7] = target: T1, 20S proteasome (Homo sapiens); assay: Activation of human 20S proteasome caspase-like hydrolysis activity assessed as concentration to doubling the protein activity using […] as a fluorogenic substrate measured after 1 hr by fluorescence based assay; assay type: protein-complex assay; details: filed as activator
[8] = target: T1, 20S proteasome (Homo sapiens); assay: Activation of human 20S proteasome mediated trypsin-like proteolytic activity assessed as maximal fold increase in protein activity using […] as a fluorogenic substrate incubated for 1 hr by fluorescence based assay; assay type: protein-complex assay; details: filed as activator
[9] = target: T1, 20S proteasome (Homo sapiens); assay: Activation of 20S proteasome in human HeLa cells assessed as gate opening by measuring increase in membrane-permeable fluorescent probe signal pretreated for 20 hrs followed by treated with Me4BodipyFL-Ahx3Lue3VS probe for 2 hrs by flow cytometry relative to DMSO; assay type: cell-based; details: filed as activator, time 22.0 hrs
[10] = target: T1, 20S proteasome (Homo sapiens); assay: Activation of human 20S proteasome chymotrypsin-like hydrolysis activity assessed as measuring fold increase in protein activity using SucLLVY-MCA as a fluorogenic substrate at 10 uM incubated for 20 mins by fluorescence based assay relative to DMSO; assay type: protein-complex assay; details: filed as activator
[11] = target: T1, 20S proteasome (Homo sapiens); assay: Activation of human 20S proteasome assessed as alpha-synuclein degradation incubated for 20 mins by Western blot analysis; assay type: protein-complex assay; details: filed as activator
[12] = target: T1, 20S proteasome (Homo sapiens); assay: Activation of human 20S proteasome trypsin-like hydrolysis activity assessed as concentration to doubling the protein activity using […] as a fluorogenic substrate measured after 1 hr by fluorescence based assay; assay type: protein-complex assay; details: filed as activator
[13] = target: T1, 20S proteasome (Homo sapiens); assay: Activation of human 20S proteasome chymotrypsin-like hydrolysis activity assessed as measuring fold increase in protein activity using SucLLVY-MCA as a fluorogenic substrate at 20 uM incubated for 20 mins by fluorescence based assay relative to DMSO; assay type: protein-complex assay; details: filed as activator

Compound | fold change (FC) ([1]; filed as activator) | fold change (FC) [10] | fold change (FC) [1] | further results
CN1C[C@H](C(=O)N[C@]2(C)O[C@@]3(O)[C@@H]4CCCN4C(=O)[C@H](Cc4ccccc4)N3C2=O)C=C2c3cccc4[nH]cc(c34)C[C@H]21 | 7.2 | – | – | –
CCOC(=O)Oc1c(OC)cc(C(=O)O[C@@H]2C[C@@H]3CN4CCc5c([nH]c6cc(OC)ccc56)[C@H]4C[C@@H]3[C@H](C(=O)OC)[C@H]2OC)cc1OC | 13 | 12.5 | – | Activity [2]: inactive; Activity ([3]; filed as activator): Active; CD [4]: 1 µM; fold change (FC) [5]: 9.4; fold change (FC) [6]: 9.8; CD [7]: 0.38 µM; fold change (FC) [8]: 8; Activity [9]: 2.84; Activity [11]: Active; CD [12]: 0.96 µM
COc1ccc2c3c([nH]c2c1)[C@H]1C[C@H]2[C@H](C[C@@H](O)[C@H](OC)[C@H]2C(=O)O)CN1CC3 | – | 2.73 | < 3 | –
CC(C)=CCC/C(C)=C/CC/C(C)=C/CC/C(C)=C/CC1=C(C)C(=O)c2ccccc2C1=O | 4.5 | – | – | –
O=C(O)[C@@H]1[C@H]2C[C@H]3c4[nH]c5ccccc5c4CCN3C[C@@H]2CC[C@@H]1O | – | 2.17 | < 3 | –
CC(C)[C@H]1C(=O)N2CCC[C@H]2[C@]2(O)O[C@](NC(=O)[C@@H]3C[C@@H]4c5cccc6[nH]cc(c56)C[C@H]4N(C)C3)(C(C)C)C(=O)N12 | 4.3 | – | – | –
CC(C)C[C@H]1C(=O)N2CCC[C@H]2[C@]2(O)O[C@](NC(=O)[C@@H]3C=C4c5cccc6[nH]cc(c56)C[C@H]4N(C)C3)(C(C)C)C(=O)N12 | 8.9 | – | – | –
CC(C)[C@@]1(NC(=O)[C@@H]2C[C@@H]3c4cccc5[nH]cc(c45)C[C@H]3N(C)C2)O[C@@]2(O)[C@@H]3CCCN3C(=O)[C@H](Cc3ccccc3)N2C1=O | 8 | – | – | –
Cc1cc2c(C(C)C)c(O)c(O)c(C=O)c2c(O)c1-c1c(C)cc2c(C(C)C)c(O)c(O)c(C=O)c2c1O | 4 | – | – | –
COC(=O)[C@@H]1[C@H]2C[C@H]3c4[nH]c5ccccc5c4CCN3C[C@@H]2CC[C@@H]1O | – | 0.82 | < 3 | –
RAUWOLFIA SERPENTINA | – | 1.05 | < 3 | –
COc1cc(/C=C/C(=O)CC(=O)/C=C/c2ccc(O)c(OC)c2)ccc1O | 5.4 | – | – | –
C[C@H]1[C@H](C)CC[C@]2(C(=O)O)CC[C@]3(C)C(=CC[C@@H]4[C@@]5(C)CC[C@H](O)C(C)(C)[C@@H]5CC[C@]43C)[C@H]12 | 6.5 | – | – | –
CC(C)C[C@@H](C=O)NC(=O)[C@H](CC(C)C)NC(=O)[C@H](CC(C)C)NC(=O)OCc1ccccc1 (Cbz-Leu-Leu-Leu-aldehyde) | – | – | – | Activity [9]: 0.11
COC(=O)[C@H]1[C@H]2C[C@@H]3c4[nH]c5cc(OC)ccc5c4CCN3C[C@H]2C[C@@H](OC(=O)c2cc(OC)c(OC)c(OC)c2)[C@@H]1OC | 7.9 | 7.91 | – | Activity [2]: inactive; Activity [3]: inactive; CD [4]: 1.6 µM; fold change (FC) [5]: 7; fold change (FC) [6]: 4.8; CD [7]: 0.53 µM; fold change (FC) [8]: 7; Activity [11]: Active; CD [12]: 1.3 µM
COC(=O)[C@H]1/C(=N/O)CC[C@H]2CN3CCc4c([nH]c5ccccc45)[C@@H]3C[C@@H]21 | – | 1.49 | < 3 | –
CN(C)CCCN1c2ccccc2Sc2ccc(Cl)cc21 | – | – | – | Activity [9]: 1.29; fold change (FC) [13]: 4.09
COC(=O)[C@H]1[C@H]2C[C@H]3c4[nH]c5ccccc5c4CCN3C[C@H]2CC[C@@H]1O | – | 1.32 | < 3 | –
CC(C)C[C@H]1C(=O)N2CCC[C@H]2[C@]2(O)O[C@](NC(=O)[C@@H]3C=C4c5cccc6[nH]c(Br)c(c56)C[C@H]4N(C)C3)(C(C)C)C(=O)N12 | 6.7 | – | – | –
COC(=O)[C@H]1[C@H]2C[C@H]3c4[nH]c5ccccc5c4CCN3C[C@@H]2CC[C@@H]1O | – | 0.99 | < 3 | –
Cc1cc2nc3c(=O)[nH]c(=O)nc-3n(C[C@H](O)[C@H](O)[C@H](O)CO)c2cc1C | 4.5 | – | – | –
